US7915009B2, “Activation and inhibition of the immune system” (The Mathilda and Terence Kennedy Institute of Rheumatology …, priority 1999, dated 2011)
Entries after “also recorded” stand apart in the source; their conditions may differ. Where a SMILES comes first, the peptide text is derived from it. The star is where a group is joined. Cbz = O=C(OCc1ccccc1)*; OtBu = CC(C)(C)O*

Legend:
allo-lymphocytes [1] = test: Surface antigens on allo-lymphocytes cultured with PSI-treated DC (FACScan); assay type: cell-based, human
Protocol: FIG. 7. […] Lymphocytes were cultured for 6 days as the same conditions with allo-MLR experiment using vehicle treated DC (green line), or PSI (1 μM) treated DC (red line). Each lymphocytes were phenotyped with MoAbs, CD3, CD25 (PE conjugated; Pharmingen), (CD54) (PE conjugated; Serotec), CD50 (FITC conjugated; Serotec) and analysed by FACScan.
(§1) For FACS staining, cells were first harvested. For adherent cells where surface receptors need to be intact, a warm 2% EDTA in PBS solution was used for 20 min at 37° C. After cells were in solution, they were washed once and then resuspended in ice-cold FACS washing buffer. All subsequent incubations were performed at 4° C. For each analysis, 5×10^5 cells were incubated with the relevant antigen-specific antibody or isotype control for 30 min and then washed twice with FACS washing buffer. Cells were then examined by flow cytometry. cells were ready for analysis on a FACScan flow cytometer (Becton and Dickinson) by using the CellQuest (Becton Dickinson). Directly conjugated monoclonal antibodies to HLA-DR, HLA-A,B,C, CD80, CD86, CD3, CD14 and CD25 were purchased by Pharmingen, San Diego, USA).

NFκB = conditions: previously shown by the inventors; cited from earlier work
mature DC [2] = test: Allogeneic MLR with PSI-treated DC, 3H-TdR uptake; assay type: cell-based, human; conditions: day 6
Protocol: FIG. 2. Immunostimulatory capacity of DC treated with the proteosome inhibitor Cbz-Ile-Glu(O-tert-bytyl)-Ala-leucinal (PSI). Mature DC was treated with PSI (0.1 μM: ▴), (0.5 μM: ▪), (1, μM: ●) or without PSI (∘) for 4 h. After wash, different numbers of each category of DC and […] of allo-lymphocytes were plated on a 96 well plate. Proliferation was determined at day 6 using ^3H-TdR uptake assay. (Each point represents mean+/−SEM from five separate experiments).
To assay the immunostimulatory capacity of non-irradiated or irradiated (3000 rad from a ^137Cs source) DC, uninfected, adenovirus-infected, LPS-treated or monocyte-conditioned medium-treated DC were cultured in graded doses with 1×10^5 of allogeneic elutriated T cells in quadruplicate in a 96-well flat-bottom microtiter plate (Falcon). Proliferation was measured on day 5 by thymidine incorporation after a 16 h pulse with [^3H] thymidine (0.5 μCi/well; Amersham Life Science, UK).
(§2) PSI is an inhibitor of proteosome activity and as such is capable of inhibiting induced IκB degradation and subsequent NF-κB activation. We used PSI to examine the function of NFκB in dendritic cell (DC) activity particularly in relation to antigen presentation and activation of T cells. We have previously shown that PSI is capable of inhibiting NFκB activation at concentrations up to 1 μM. To test the effect of PSI on DC viability mature DC were incubated with concentrations of PSI, ranging from 0.1 μM to 5 μM. […] To assess the role of NFκB in DC function, mature DC were incubated with 0.3 μM, 0.5 μM or 1 μM PSI for […] and the cells washed. As PSI is an activated peptide that binds irreversibly to the proteosomes, the function of the DC can be assessed over the 6 day period of the MLR despite the short period of drug exposure.

allo-lymphocytes [3] = test: Cytokine production of allo-lymphocytes co-cultured with PSI-treated DC (ELISA); assay type: cell-based, human
Protocol: FIG. 8. Cytokine production of allo-lymphocytes co-cultured with vehicle treated or PSI treated DC. Mature DC was treated with vehicle or PSI (1 μM) as described above. Allo-lymphocytes and each DC were plated at 2×10^5 cells per well on a 96 well plate and stimulated with PMA (10 nM) or left unstimulated for […].
(§3) Cells were pre-treated with vehicle or 1 μM of PSI for 4 h, or infected with adenoviral vectors for 2 h. PSI-treated DC were then directly used in experiments whereas infected cells were further cultured for 2 days to allow overexpression of the relevant protein to occur. 24 h after stimulation of the cells, culture supernatants were collected and kept frozen. Cytokine levels in cell culture supernatants were measured by standard 2 or 3 layer sandwich ELISA techniques using specific monoclonal and polyclonal antibodies for TNFα, IL-4, IL-6, IL-8, IL-12 and IFNγ. Antibody pairs and standards for these assays have been purchased from Pharmingen, with the exception of IL-12 reagents that were gifted from the Genetics Institute (Boston, USA).

mature DC [4] = test: Cell viability of DC treated with PSI, propidium iodide staining (FACS); assay type: cell-based, human; conditions: PSI for 4 h, analysed 6 days after treatment
Protocol: FIG. 1. Cell viability of DC treated with PSI. Mature DC was either left untreated, or treated with various doses of PSI for 4 h. After wash, cells were cultured in RPMI 1640 supplemented as described without monocyte condition medium. 6 days after treatment, cells were resuspended in PBS containing 10 μg/ml. Of propidium iodide PI and analysed on FACS scan.
as §2

mature DC [5] = test: Surface antigen expression on PSI-treated DC (FACScan); assay type: cell-based, human
Protocol: FIG. 3. Effect of PSI on the expression of surface antigens was studied using monoclonal antibodies, HLA-DR, CD86 (PE conjugated); Pharmingen, San Diego, Calif.). on day 6 after PSI treatment, populations of untreated (green line), PSI (0.1 μM) treated (blue dotted line), PSI (1 μM) treated (red dotted line) were phenotyped with the MoAbs listed above and analysed on FACScan (Becton Dickinson).
as §1

allo-lymphocytes [6] = test: Allo-MLR with mixtures of PSI-treated and vehicle-treated DC; assay type: cell-based, human; conditions: judged from slope of proliferative response curves, PSI 1 μM
Protocol: FIG. 5. PSI pre-treated DC inhibit the growing ability of lymphocytes in allo-MLR. Mature DC was treated with PSI as described above. After washing, each DC was mixed to make different compositions: vehicle treated DC only (∘), ¼ number of PSI treated DC mixed with ¾ vehicle treated DC (●), ⅛ number of PSI treated DC mixed with […] vehicle treated DC (▪), or PSI treated DC only (▴). Graded number of each mixture and 10^5 cells of allo-lymphocytes were plated on a 96 well plate. Proliferation was determined at day 6 by ^3H-TdR uptake assay.
(§4) A means of detecting whether PSI-DC were generating inhibitory effects is to culture T cells with a mixture of PSI treated and untreated DC. […] Next we investigated whether exposure to PSI-DC would induce long term unresponsiveness in the T cells. T cells were exposed to normal or PSI-DC as previously described after which the T cells were collected and were treated with a DC for a second time and the proliferative response measured (FIG. 6). […] This would indicate that the effects of exposure to PSI-DC are prolonged and the T cells acquire a non-responsive or anergic state.

mature DC [7] = test: Cytokine production of DC treated with PSI (ELISA); assay type: cell-based, human; conditions: PSI 1 μM
Protocol: FIG. 9. Cytokine productions of DC treated with vehicle or PSI. Mature DC was treated with vehicle or PSI (1 μM) as described above. Each DC and allo-lymphocytes were plated at 2×10^5 cells per well on a 96 well plate and stimulated with PMA (10 nM) or left unstimulated for 48 hr. Supernatants were analysed for IL-6, IL-8, IL-12 and TNFα by ELISA.
as §3

allo-lymphocytes [8] = test: Re-stimulation of allo-lymphocytes pre-cultured with PSI-treated DC; assay type: cell-based, human
Protocol: FIG. 6. Impaired response of allo-lymphocytes pre-cultured with PSI treated or non-treated DC. Lymphocytes were co-cultured with 1/10 number of PSI treated (●, ▴) or non-treated DC (∘,Δ). After 2 days, each DC were removed by CD83, CD86 coated plate. Lymphocytes were cultured for another 4 days using vehicle treated DC (∘,●), or PSI (1 μM) treated DC (Δ,▴). Proliferation was determined by ^3H-TdR uptake assay. (Each point represents mean+/−SEM from three separate experiments).
as §4
Further questions as to the mechanism of the lack of the T cell proliferative response were addressed. It could simply be due to lack of immunogenicity of the DC, or alternatively it could be due to the induction of a form of immunological tolerance or of immune regulation. The mechanism was analysed further by coculture experiments, adding PSI treated DC to untreated DC, and analysing the effect of the mixture on unprimed T cells in the MLR. […] Similar effects have been reported in a variety of tolerance models Zanders et al (1983) Nature 303, 625-627; Zanders et al (1985) J. Immunol. 15, 302-305; Park et al (1997) Eur. J. Immunol. 15, 302-305; and Waldmann & Cubbold (1998) Ann. Rev. Immunol. 16, 619-644 and so we asked whether PSI treated DC induced immunological tolerance. This was assessed by first exposing allogeneic T cells to PSI treated DC for 2 days, and then removing them, by panning with anti CD83 and anti CD86. […]

[9] = 6 days with PSI (1 μM) treated DC
[10] = 1 μM PSI, 6 days after treatment

## CC[C@H](C)[C@H](NC(=O)OCc1ccccc1)C(=O)N[C@@H](CCC(=O)OC(C)(C)C)C(=O)N[C@@H](C)C(=O)N[C@H](C=O)CC(C)C [PSI, Cbz-Ile-Glu(O-tert-bytyl)-Ala-leucinal] (Cbz-IE(OtBu)AL-aldehyde)
allo-lymphocytes [1]; 6 days culture
  yields of T cells after culture with PSI treated DC: lower
allo-lymphocytes [1]; [9]
  CD3 expression on T lymphocytes: reduced expression
  CD11a (LFA-1) expression on T lymphocytes: only marginally reduced; also recorded: some reduction
  CD25 expression on T lymphocytes: virtually abolished
  CD54 (ICAM-1) expression on T lymphocytes: reduced to a degree similar to CD3; also recorded: some reduction
NFκB
  concentrations at which PSI inhibits NFκB activation: up to 1 μM
Mature DC [2]; DC pretreated with PSI 0.1 μM
  T cell proliferation in allogeneic MLR: no detectable effect
Mature DC [2]; DC pretreated with PSI 0.5 μM
  T cell proliferation in allogeneic MLR: failure of the T cells to proliferate
Mature DC [2]; DC pretreated with PSI 1 μM
  T cell proliferation in allogeneic MLR: failure of the T cells to proliferate
allo-lymphocytes [3]; PSI 1 μM
  IFNγ production by T cells in response to PSI-DC: not produced
  IL-2 production by T cells in response to PSI-DC: not produced
  IL-4 production by T cells in response to PSI-DC: unaffected; also recorded: not changed
allo-lymphocytes [3]; PSI treated DC
  inhibition of IFNγ production of T cells exposed to PSI treated DC: more than 90%
  inhibition of IL-2 production of T cells exposed to PSI treated DC: more than 90%
Mature DC [4]
  PSI concentrations showing some toxicity (propidium iodide staining): > 5 µM
Mature DC [5]; [10]
  CD86 expression on DC: reduced, to virtually background levels; also recorded: marked reduction
  HLA-DR expression on DC: major reduction; also recorded: marked reduction
Mature DC [5]; 0.1μ PSI, 6 days after treatment
  HLA-DR expression on DC: minimal effect
Mature DC [5]; PSI-treated DC
  CD80 expression on DC: downregulation
allo-lymphocytes [6]
  reduction of proliferative response by ⅛ or ¼ PSI-DC mixed with untreated DC: 3-5 fold
Mature DC [7]
  IL-6 expression from PSI-DC during the MLR: to a lesser extent, IL-6 expression was inhibited; also recorded: not changed
  IL-8 production from PSI-DC during the MLR: unaffected; also recorded: not changed
  IL-12 production by PSI treated DC: Reductions
  TNF expression from PSI-DC during the MLR: inhibited; also recorded: Reductions
allo-lymphocytes [8]; 2 days PSI-DC, then 4 days normal DC
  response of T cells stimulated with PSI-DC prior to normal DC: unable to respond; also recorded: lack of response
allo-lymphocytes [8]; PSI 1 μM
  response of T cells exposed to PSI-DC on the second round after normal DC: failed to proliferate
  response of T cells to two rounds of PSI-DC: did not respond
